ChEMBL document CHEMBL1201862, “PubChem BioAssay data set” (2004)
Active and inactive are the calls of the source.

Legend:
[1] = molecular target: Intestinal-type alkaline phosphatase (Homo sapiens, UniProt P09923); assay: Dose Response confirmation of uHTS hits from a small molecule inhibitors of human intestinal alkaline phosphatase via a luminescent assay. [Related pubchem assays (depositor defined):AID2544, AID2574]; format: functional
[2] = molecular target: Lytic switch protein BZLF1 (Epstein-Barr virus (strain B95-8) (HHV-4) (Human herpesvirus 4), UniProt P03206); assay: inhibition of BZLF1 ZTA DNA binding – biochemical, fluorescence polarization, Epstein-Barr virus, 1536-well, counter-screen for EBNA-1 inhibitor project, dose response (AID 2377); set-up: species or system human gammaherpesvirus 4;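 also: fluorescence polarization of Cy5-labelled ZRE DNA probe bound by purified Zta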
[3] = molecular target: Epstein-Barr nuclear antigen 1 (Epstein-Barr virus (strain B95-8) (HHV-4) (Human herpesvirus 4), UniProt P03211); assay: inhibition of EBV nuclear antigen 1 DNA binding – biochemical, fluorescence polarization, 1536-well, dose response (AID 2381); set-up: species or system human gammaherpesvirus 4;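 also: fluorescence polarization of a Cy5 DNA probe bound by EBNA-1 protein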
[4] = molecular target: T1, Hexokinase HKDC1 (Homo sapiens, UniProt Q2TB90); assay: inhibition of HKDC1 glucose phosphorylation – biochemical, W721R variant, dose response (AID 504729); format: functional
T1 sequence (Q2TB90 whole entry): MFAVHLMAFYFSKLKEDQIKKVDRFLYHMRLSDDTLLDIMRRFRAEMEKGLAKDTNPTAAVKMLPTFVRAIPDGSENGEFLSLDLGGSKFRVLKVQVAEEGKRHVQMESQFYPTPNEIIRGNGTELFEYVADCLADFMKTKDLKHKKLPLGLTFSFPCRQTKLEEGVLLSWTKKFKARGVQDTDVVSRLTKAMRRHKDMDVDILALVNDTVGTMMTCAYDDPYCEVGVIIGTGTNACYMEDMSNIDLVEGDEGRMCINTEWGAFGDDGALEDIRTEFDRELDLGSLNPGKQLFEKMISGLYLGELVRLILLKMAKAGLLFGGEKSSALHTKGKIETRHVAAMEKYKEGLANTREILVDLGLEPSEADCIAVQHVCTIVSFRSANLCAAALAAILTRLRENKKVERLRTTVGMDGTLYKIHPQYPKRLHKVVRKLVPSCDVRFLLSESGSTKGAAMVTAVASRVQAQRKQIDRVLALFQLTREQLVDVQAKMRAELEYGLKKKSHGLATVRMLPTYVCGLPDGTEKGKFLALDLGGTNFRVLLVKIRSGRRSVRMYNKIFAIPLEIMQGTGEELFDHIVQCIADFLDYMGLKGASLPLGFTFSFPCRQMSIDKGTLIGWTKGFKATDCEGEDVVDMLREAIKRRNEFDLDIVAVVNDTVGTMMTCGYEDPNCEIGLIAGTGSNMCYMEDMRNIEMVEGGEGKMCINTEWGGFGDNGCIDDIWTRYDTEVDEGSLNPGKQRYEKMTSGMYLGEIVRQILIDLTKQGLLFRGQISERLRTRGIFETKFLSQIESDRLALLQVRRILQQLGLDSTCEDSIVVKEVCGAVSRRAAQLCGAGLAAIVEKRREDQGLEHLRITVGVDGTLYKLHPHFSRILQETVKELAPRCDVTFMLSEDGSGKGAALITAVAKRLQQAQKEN

[5] = molecular target: T2, Leucine aminopeptidase (Plasmodium falciparum 3D7, UniProt Q8IL11); assay: P. falciparum M17LAP inhibitors, primary screen, biochemical, fluorogenic H-Leu-NHMec substrate, 1536-well (AID 1619); format: functional
T2 sequence (Q8IL11 whole entry): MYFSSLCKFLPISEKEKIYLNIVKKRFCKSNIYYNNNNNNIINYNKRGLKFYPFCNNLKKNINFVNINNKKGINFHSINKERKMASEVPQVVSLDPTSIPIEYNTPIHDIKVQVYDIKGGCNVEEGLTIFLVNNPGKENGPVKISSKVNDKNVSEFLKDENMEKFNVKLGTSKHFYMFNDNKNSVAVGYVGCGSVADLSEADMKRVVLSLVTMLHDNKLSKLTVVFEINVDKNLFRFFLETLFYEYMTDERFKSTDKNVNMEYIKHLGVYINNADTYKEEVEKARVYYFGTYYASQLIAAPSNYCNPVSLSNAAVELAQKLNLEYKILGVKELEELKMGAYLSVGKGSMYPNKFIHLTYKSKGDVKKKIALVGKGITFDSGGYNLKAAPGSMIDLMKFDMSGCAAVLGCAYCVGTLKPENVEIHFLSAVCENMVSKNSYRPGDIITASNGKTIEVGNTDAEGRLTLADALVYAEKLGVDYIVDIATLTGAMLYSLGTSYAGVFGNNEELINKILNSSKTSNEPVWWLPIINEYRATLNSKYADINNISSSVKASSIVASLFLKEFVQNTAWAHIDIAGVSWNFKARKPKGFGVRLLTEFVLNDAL

[6] = molecular target: T3, Aminopeptidase N (Plasmodium falciparum FcB1/Columbia, UniProt O96935); assay: malaria alanyl aminopeptidase activity blockers – biochemical, fluorogenic H-Leu-NHMec substrate, 1536-well (AID 1445); set-up: species or system Plasmodium falciparum 3D7, 3D7
T3 sequence (O96935 whole entry): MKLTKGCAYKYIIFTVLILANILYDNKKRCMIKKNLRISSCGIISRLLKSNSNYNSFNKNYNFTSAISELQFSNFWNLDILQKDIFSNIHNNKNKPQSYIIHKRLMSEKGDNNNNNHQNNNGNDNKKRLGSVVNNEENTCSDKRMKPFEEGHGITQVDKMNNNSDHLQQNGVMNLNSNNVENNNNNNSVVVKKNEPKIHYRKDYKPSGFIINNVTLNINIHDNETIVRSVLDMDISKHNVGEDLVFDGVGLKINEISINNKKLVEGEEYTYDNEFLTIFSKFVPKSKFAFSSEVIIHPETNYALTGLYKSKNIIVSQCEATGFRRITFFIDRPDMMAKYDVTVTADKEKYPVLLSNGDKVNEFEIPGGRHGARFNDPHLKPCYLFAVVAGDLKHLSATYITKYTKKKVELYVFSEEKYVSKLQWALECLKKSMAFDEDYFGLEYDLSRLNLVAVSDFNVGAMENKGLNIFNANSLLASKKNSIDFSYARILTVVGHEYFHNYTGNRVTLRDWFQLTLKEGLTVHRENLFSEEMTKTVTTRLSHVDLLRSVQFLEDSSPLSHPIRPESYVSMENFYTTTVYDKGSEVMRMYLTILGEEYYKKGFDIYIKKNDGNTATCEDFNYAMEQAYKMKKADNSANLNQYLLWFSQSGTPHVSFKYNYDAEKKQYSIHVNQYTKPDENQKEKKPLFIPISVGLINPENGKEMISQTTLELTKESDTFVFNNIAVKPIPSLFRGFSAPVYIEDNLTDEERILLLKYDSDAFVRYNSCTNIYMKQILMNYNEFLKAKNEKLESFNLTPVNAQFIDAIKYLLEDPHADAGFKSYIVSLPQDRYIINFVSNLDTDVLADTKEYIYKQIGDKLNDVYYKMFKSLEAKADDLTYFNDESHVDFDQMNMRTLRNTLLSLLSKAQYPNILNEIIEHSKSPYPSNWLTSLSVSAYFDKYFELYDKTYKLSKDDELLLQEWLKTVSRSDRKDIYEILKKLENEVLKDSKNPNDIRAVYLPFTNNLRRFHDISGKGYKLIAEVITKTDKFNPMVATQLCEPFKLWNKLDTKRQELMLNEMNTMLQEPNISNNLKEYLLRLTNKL

[7] = antiviral protection against BTV-induced cell death – arbovirus, BSR cells, confirmation (AID 1250); format: functional;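 also: protection from viral cytopathic effect measured as cell viability by ATP luminescence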
[8] = molecular target: T4, Bcl-2-related protein A1 (Mus musculus, UniProt Q07440); assay: Bfl-1 binding inhibitors, SAR follow-up, biochemical, fluorescence polarization (AID 1070)
T4 sequence (Q07440 whole entry): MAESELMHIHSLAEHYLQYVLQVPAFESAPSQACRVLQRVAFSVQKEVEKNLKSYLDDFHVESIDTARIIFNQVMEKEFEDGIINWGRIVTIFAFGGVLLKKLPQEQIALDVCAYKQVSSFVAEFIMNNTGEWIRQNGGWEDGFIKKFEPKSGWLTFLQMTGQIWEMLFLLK

[9] = molecular target: Glyceraldehyde-3-phosphate dehydrogenase (Homo sapiens, UniProt P04406)
[10] = molecular target: T4, Bcl-2-related protein A1; assay: small-molecule antagonists of Bfl-1/BH3 interaction – biochemical, TR-FRET, mouse Bfl-1, confirmation (AID 621);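 also: TR-FRET binding of GST-Bfl-1 to FITC-labelled Bid peptide via terbium antibody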
[11] = Luminescence Cell-Based Dose Response HTS to Identify Inhibitors of 5'UTR Stem-Loop Driven Prion Protein mRNA Translation in H4 Neuroglioblastoma Cells. [Related pubchem assays: 1827 (Project Summary), 1813 (Primary HTS)]; format: functional
[12] = test system: BJ; assay: BJ-TERT fibroblast viability loss – cell-based, RAS-independent, luminescence, dose response (AID 1933); format: functional; conditions: Homo sapiens
[13] = alpha-synuclein stem-loop luciferase translation blockers – H4 neuroglioma cells, luminescence, confirmation (AID 1988); format: functional, cell-based
[14] = test system: BJ; assay: BJ-TERT-LT-ST fibroblast viability loss – cell-based, RAS-independent, luminescence, dose response (AID 1935); format: functional; conditions: Homo sapiens;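 also: BJ fibroblasts immortalized with TERT plus LT and ST oncogenes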
[15] = test system: BJ; assay: growth inhibition of engineered Ras-driven BJ cells – cell-based, alamar blue fluorescence, cherrypicked samples, dose response (AID 2631); format: functional; conditions: Homo sapiens;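 also: confirmatory dose-response assay in RAS-dependent BJ fibroblasts engineered with TERT, LT and ST, with cytotoxicity read by fluorescence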
[16] = test system: BJ; assay: cells; format: functional, cell-based; conditions: Homo sapiens
[17] = molecular target: X-box-binding protein 1 (Homo sapiens, UniProt P17861); format: functional, Cricetulus griseus;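 also: confirmatory dose-response counter-screen serving a CHOP assay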
[18] = luciferase reporter signal suppression in cells – H4 neuroglioma cells, luminescence, dose response (AID 1990); format: functional, cell-based
[19] = DRD fibroblast viability loss – cell-based, non-viral oncogenic, luminescence, dose response (AID 1934); format: functional; conditions: Homo sapiens
[20] = molecular target: G-protein coupled receptor 55 (Homo sapiens, UniProt Q9Y2T6); assay: selective activators of receptor GPR55 – imaging, U2OS cells, beta-arrestin-GFP redistribution, primary screen (AID 1961); format: functional
[21] = molecular target: T5, Mannose-6-phosphate isomerase (Homo sapiens, UniProt P34949); assay: MPI inhibition at elevated mannose 6-phosphate – biochemical, fluorescence intensity, high mannose 6-phosphate, primary screen (AID 1220)
T5 sequence (P34949 whole entry): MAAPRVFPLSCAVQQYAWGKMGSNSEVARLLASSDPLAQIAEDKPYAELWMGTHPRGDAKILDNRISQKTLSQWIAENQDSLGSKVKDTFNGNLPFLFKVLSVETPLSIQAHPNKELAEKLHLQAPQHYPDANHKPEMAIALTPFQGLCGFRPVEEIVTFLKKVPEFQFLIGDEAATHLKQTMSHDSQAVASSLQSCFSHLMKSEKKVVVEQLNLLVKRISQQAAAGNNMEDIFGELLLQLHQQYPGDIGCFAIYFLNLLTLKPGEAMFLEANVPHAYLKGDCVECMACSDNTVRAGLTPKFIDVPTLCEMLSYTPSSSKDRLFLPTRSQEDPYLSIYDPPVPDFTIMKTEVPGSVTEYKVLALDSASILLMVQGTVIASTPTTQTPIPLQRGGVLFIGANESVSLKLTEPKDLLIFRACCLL

[22] = molecular target: T6, Protein RecA (Mycobacterium tuberculosis, UniProt P9WHJ3); assay: Fluorescence Cell-Free Homogeneous Dose Retest to Identify Inhibitors of RecA-Intein Splicing Activity. [Related pubchem assays (depositor defined):AID2097, AID2223, AID489010, AID492950]; format: functional
T6 sequence (P9WHJ3 whole entry): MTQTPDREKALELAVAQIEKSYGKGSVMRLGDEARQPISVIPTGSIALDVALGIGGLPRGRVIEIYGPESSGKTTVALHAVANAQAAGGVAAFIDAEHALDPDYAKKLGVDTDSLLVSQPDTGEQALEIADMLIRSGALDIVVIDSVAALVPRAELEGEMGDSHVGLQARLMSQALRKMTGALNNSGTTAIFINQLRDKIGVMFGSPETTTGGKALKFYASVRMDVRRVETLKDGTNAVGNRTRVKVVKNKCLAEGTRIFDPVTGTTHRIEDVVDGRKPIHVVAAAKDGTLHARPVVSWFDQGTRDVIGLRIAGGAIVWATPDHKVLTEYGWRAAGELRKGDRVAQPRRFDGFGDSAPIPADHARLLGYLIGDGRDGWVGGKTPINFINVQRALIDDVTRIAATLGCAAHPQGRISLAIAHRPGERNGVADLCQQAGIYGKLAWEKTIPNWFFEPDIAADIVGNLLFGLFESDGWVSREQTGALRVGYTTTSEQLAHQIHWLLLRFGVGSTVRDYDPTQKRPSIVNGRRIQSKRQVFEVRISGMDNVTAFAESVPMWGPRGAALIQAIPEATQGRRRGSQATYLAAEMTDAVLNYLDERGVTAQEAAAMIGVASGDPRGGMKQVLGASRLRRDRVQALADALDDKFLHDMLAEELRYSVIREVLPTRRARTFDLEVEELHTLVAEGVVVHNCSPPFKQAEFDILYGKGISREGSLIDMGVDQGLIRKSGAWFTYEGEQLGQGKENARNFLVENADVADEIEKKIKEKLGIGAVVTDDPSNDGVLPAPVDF

[23] = M. tuberculosis H37Rv growth inhibitors, H37Rv strain (AID 1626); format: functional

Chain of Epstein-Barr nuclear antigen 1 (P03211 whole entry): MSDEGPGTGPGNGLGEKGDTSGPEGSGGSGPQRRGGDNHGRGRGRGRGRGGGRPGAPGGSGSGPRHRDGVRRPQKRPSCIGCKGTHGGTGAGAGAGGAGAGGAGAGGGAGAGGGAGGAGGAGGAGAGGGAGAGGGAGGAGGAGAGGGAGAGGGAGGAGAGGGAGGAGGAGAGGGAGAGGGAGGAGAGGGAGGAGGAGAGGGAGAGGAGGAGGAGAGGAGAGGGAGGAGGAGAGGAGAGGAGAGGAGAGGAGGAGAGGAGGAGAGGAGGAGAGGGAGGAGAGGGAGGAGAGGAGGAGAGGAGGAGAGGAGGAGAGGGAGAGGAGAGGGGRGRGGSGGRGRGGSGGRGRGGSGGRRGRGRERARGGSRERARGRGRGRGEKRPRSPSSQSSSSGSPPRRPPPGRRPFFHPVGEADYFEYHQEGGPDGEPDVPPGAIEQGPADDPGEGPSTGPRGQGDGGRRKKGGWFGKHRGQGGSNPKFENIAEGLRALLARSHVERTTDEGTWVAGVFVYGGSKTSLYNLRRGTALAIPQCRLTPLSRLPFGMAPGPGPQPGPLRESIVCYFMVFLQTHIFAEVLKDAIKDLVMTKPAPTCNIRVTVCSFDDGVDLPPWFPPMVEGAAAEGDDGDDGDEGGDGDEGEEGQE
Chain of Lytic switch protein BZLF1 (P03206 whole entry): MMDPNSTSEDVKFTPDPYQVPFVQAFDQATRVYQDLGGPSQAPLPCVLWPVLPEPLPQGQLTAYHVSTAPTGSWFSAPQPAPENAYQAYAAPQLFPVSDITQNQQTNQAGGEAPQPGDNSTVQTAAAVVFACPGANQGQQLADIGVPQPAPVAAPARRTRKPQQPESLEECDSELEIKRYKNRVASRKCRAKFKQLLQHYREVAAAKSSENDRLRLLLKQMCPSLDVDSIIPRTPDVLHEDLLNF
Chain of Intestinal-type alkaline phosphatase (P09923 whole entry): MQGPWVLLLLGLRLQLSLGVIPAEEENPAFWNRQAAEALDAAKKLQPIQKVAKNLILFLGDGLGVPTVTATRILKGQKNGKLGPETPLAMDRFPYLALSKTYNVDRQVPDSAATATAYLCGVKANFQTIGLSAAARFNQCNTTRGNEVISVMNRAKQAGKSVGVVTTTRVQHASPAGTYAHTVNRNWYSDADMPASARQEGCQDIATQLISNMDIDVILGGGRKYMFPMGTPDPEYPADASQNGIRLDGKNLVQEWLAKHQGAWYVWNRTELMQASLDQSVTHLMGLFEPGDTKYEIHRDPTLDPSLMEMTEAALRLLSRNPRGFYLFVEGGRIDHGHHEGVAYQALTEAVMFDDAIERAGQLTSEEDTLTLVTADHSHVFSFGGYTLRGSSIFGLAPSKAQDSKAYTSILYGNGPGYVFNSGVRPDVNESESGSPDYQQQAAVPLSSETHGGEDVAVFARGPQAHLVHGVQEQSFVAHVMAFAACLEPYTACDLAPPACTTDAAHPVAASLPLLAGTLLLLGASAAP
Chain of X-box-binding protein 1 (P17861 whole entry): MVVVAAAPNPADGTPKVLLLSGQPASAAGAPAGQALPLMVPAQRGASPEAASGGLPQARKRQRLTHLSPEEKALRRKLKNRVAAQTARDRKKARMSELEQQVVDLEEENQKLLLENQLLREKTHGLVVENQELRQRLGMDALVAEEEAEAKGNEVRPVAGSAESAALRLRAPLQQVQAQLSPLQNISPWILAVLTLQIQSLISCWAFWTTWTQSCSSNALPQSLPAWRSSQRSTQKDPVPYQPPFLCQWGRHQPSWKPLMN
Chain of Glyceraldehyde-3-phosphate dehydrogenase (P04406 whole entry): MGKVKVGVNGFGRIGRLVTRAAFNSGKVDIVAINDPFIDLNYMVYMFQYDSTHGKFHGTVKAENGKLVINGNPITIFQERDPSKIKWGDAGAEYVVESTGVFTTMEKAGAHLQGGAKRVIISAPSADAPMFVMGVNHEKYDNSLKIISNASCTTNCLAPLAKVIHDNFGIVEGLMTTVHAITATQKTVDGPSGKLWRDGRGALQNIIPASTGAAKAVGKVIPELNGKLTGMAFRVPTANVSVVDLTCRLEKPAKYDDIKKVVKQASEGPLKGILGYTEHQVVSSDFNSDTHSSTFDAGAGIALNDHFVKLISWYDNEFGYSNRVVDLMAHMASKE
Chain of G-protein coupled receptor 55 (Q9Y2T6 whole entry): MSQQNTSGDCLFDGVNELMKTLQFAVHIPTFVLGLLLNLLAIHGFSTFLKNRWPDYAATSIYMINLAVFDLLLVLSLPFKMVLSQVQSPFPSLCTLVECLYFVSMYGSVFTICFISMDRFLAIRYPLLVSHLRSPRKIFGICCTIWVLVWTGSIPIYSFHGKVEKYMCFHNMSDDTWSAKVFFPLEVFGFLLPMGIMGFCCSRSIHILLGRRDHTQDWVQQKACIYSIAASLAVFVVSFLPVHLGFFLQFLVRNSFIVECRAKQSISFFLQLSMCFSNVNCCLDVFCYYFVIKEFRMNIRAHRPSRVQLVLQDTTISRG

## COc1cc(/C=C2\SC(=S)N(N(C)c3ccccc3)C2=O)ccc1O
[1]
  IC50: 13.1 µM (inactive)

## COc1ccc(-n2c(SCC(=O)NCC3CCCO3)nc3c4ccccc4nc-3c2O)cc1 (stereo unspecified)
[2]
  IC50: > 111 µM (not active)
[3]
  IC50: 9.89 µM (active)

## COP(=O)(OC)c1ccc(NCc2cc(O)ccc2O)cc1
[4]
  IC50: 9.51 µM (active)

## CC(C)S(=O)(=O)C1=NSC2=NC(=O)/C(=C\c3ccc(-c4ccccc4)o3)C(=N)N21
[5]
  IC50: 12.6 µM (active)
[6]
  IC50: 45.6 µM (active)
[7]
  IC50: 27.1 µM (active)

## CN1CCN(C2=C(Cl)C(=O)N(c3cccc(Cl)c3Cl)C2=O)CC1
[8]
  IC50: 8.74 µM (active)
[9]
  IC50: > 100 µM (not active)
[10]
  IC50: 2.56 µM (active)

## Cc1ccc(-c2nn(CC(=O)NCc3cc(-c4nn(C)c(=O)c5ccccc45)ccc3C)c(=O)c3ccccc23)cc1
[11]
  EC50: 6.28 µM (active)
[12]
  EC50: 4.25 µM (active)
[13]
  EC50: 6.81 µM (active)
[14]
  EC50: 5.6 µM (inconclusive)
[15]
  EC50: > 133 µM (inactive)
[16]
  EC50: 8.99 µM (active)
[17]
  Absolute IC50 (XBP1): 10 µM
[18]
  EC50: 8.15 µM (active)
[19]
  EC50: 6.29 µM (inconclusive)

## Cc1nc2c(c3c1[nH]c1ccccc13)C(O)CC(C)(C)C2 (stereo unspecified)
[7]
  IC50: 21.9 µM (active)

## COc1ccc(Cn2cccc(NC(=O)Nc3cccc(C#N)c3)c2=O)cc1
[2]
  IC50: > 111 µM (not active)
[3]
  IC50: 9.07 µM (active)

## COc1ccccc1-n1cnc2cc(NCc3ccccc3O)ccc21
[20]
  EC50: 1.51 µM (active)

## COc1ccc(/N=C/C2=C(O)c3ccccc3CC2)cc1
[21]
  IC50: < 0.391 µM (not active)
[22]
  EC50: 18.6 µM (active)
[23]
  IC50: > 100 µM (active)
